Results taken from patent US9701709B2 (REATA PHARMACEUTICALS, INC., priority 2012, dated 2017).
Marks after values point to notes of the source that are not given here.

Assays:
Format in all cases: physicochemical
[1] = Polymorph screen: crystallization and drying experiments (FT-Raman, PXRD, TG-FTIR, DSC)
Description: A preformulation and polymorphism study was performed for compound 63415. […] A total of 30 crystallization experiments, including phase equilibrations, drying experiments and other techniques, were carried out. All obtained solids were characterized by FT-Raman spectroscopy. All new forms were characterized by PXRD and TG-FTIR, and optionally by DSC and DVS.
All obtained materials were characterized by FT-Raman spectroscopy; selected samples were also characterized by PXRD.
Suspension equilibration experiments were carried out in one solvent and eleven solvent mixtures (Table 13). Suspensions of ˜100 mg of PP415-P1 in 0.2-2.0 mL of the selected solvents were prepared and shaken for 4-15 days at 22-24° C. The solids were recovered and characterized by FT-Raman spectroscopy; most were characterized also by PXRD.
Hot solutions of PP415-P1 were prepared in one solvent and four solvent mixtures (Table 14). […] In two cases (-P22, -P23) no solid precipitated, even after storage at 4-5° C. for two days. Here, the solvent was evaporated under N2 flow at r.t. The solids were recovered and characterized by FT-Raman spectroscopy and for those with spectra different from the amorphous starting material, FT-Raman class 1, also by PXRD.
Clear solutions of PP415-P1 were prepared in three solvent mixtures (Table 15). The solvents were then slowly evaporated at r.t. under ambient conditions. However, in two of the three experiments (-P15 and -P17) white solid precipitated before evaporation began. The obtained solids were examined by FT-Raman spectroscopy and PXRD.
At least one sample of each class was dried under vacuum with the aim to desolvate the solvates and to obtain non-solvated crystalline forms of 63415 (Table 16). The dried materials were characterized further by FT-Raman, PXRD, and TG-FTIR.
Bruker RFS100 with OPUS 6.5 software; Nd:YAG 1064-nm excitation, Ge detector, 3500-100 cm^−1 range; typical measurement conditions: 100-300 mW nominal laser power, 64-128 scans, 2 cm^−1 resolution.
Stoe Stadi P; Mythen1K Detector; Cu—Kα radiation; standard measurement conditions: transmission; 40 kV and 40 mA tube power; curved Ge monochromator; 0.02°2θ step size, 12 s or 60 s step time, 1.5-50.5°2θ or 1.0-55°2θ scanning range; detector mode: step scan; 1°2θ or 6°2θ detector step; standard sample preparation: 10 to 20 mg sample was placed between two acetate foils; sample holder: Stoe transmission sample holder; the sample was rotated during the measurement.
Netzsch Thermo-Microbalance TG 209 with Bruker FT-IR Spectrometer Vector 22; aluminum crucible (with microhole), N2 atmosphere, 10 K/min heating rate, 25-250° C. or 25-350° C. range.
Perkin Elmer DSC 7; gold crucibles (closed or with microhole), sample filled in an N2 environment, 10 K/min heating rate, −50 to 250° C. or 350° C. range, at times quench cooling (at −200 K/min) to −50° C. between scans.

[2] = Storage stability of the amorphous form (PXRD)
Description: To learn more about its fundamental properties and physical stability, the amorphous form of 63415 was stressed by storage at elevated temperatures and relative humidities.
Samples of the amorphous form (the PP415-P1 starting material) were stored open at 25° C./˜62% r.h. (over saturated aqueous solution of NH4NO3) and 40° C./˜75% r.h. (over saturated aqueous solution of NaCl) and closed at 60° C. and 80° C. (Table 12). At time points 0 w, 1 w, 2 w, and 4 w the samples were examined by PXRD and compared to the starting material, PP415-P1.

[3] = Chemical stability in solvents and aqueous surfactant media (HPLC); details: diluent 0.1% formic acid in MeCN, within ~24 hours; start 99.9%
Description: The chemical stability of the amorphous form was investigated in different solvents over the course of seven days.
Solutions/suspensions with a concentration of 1 mg/mL were prepared in four organic solvents (acetone, MeOH, MeCN, EtOAc) and three aqueous surfactant media (1% aq. SDS, 1% aq. Tween 80, 1% aq. CTAB).
Four separate solutions/suspensions were prepared for each solvent, equilibrated for 6 h, 24 h, 2 d, and 7 d and subsequently analyzed by HPLC.
Due to this effect, the samples measured towards the end of the sequence (set up in the following order: 7 d, 2 d, 24 h, 6 h), might be affected and the obtained area-% might be underestimated.
Four samples of 1.0 mg of the PP415-P1 material in 1.0 mL of the respective solvent were prepared. The resulting suspensions/solutions were equilibrated in a temperature-controlled Eppendorf Thermomixer Comfort shaker for 7 d, 2 d, 24 h, and 6 h at 25° C. at a shaking rate of 500 rpm. If necessary, the solid phase was separated by filter centrifugation (0.5-μm PVDF membrane). The filtrates were diluted in the diluent (0.1% formic acid in MeCN) to concentrations≦0.2 mg/mL (unknown and likely lower for suspensions) and examined using the HPLC method given in Table 29. As reference, the PP415-P1 material was diluted in the diluent to a concentration of 0.25 mg/mL and added to the beginning and end of the HPLC sequence.

[4] = Dynamic vapor sorption (hygroscopicity)
Description: Projekt Messtechnik Sorptions Prüfsystem SPS 11-100n or Surface Measurement Systems DVS-1. The sample was placed on an aluminum or platinum holder on top of a microbalance and allowed to equilibrate for 2 h at 50% r.h. before starting the pre-defined humidity program: • (1) 50→0% r.h. (5%/h); 5 h at 0% r.h. • (2) 0→95% r.h. (5%/h); 5 h at 95% r.h. • (3) 95→50% r.h. (5%/h); 2 h at 50% r.h.

[5] = Approximate solubility by manual dilution; details: r.t.
Description: The approximate solubility of the PP415-P1 starting material was measured in twelve solvents and four solvent mixtures at r.t. by manual dilution combined with visual observation (Table 10). Due to the experimental error inherent in this method, the solubility values are intended to be regarded as rough estimates and are to be used solely for the design of crystallization experiments. All solvent mixtures are listed as ratios by volume (v/v).
Approximate Solubility Determination: Approximate solubilities were determined by a stepwise dilution of a suspension of about 10 mg of substance in 0.05 mL of solvent. […] Due to the experimental error inherent in this method, the solubility values are intended to be regarded as rough estimates and are to be used solely for the design of crystallization experiments.

CC1(C)CC[C@]2(NC(=O)C(C)(F)F)CC[C@]3(C)[C@H](C(=O)C=C4[C@@]5(C)C=C(C#N)C(=O)C(C)(C)[C@@H]5CC[C@]43C)[C@@H]2C1 [PP415-P1]
TG-FTIR: decomposition at T [1]: decomposition at T > 290 °C | DSC: Tg, 1st scan ([1]; 1st scan): DSC: 1st scan: Tg = 152.7 °C | DSC: Tg, 2nd scan ([1]; 2nd scan): Tg = 149.7 °C (ΔCp = 0.45 J/g ° C.) | TG-FTIR: mass loss (solvent) ([1]; first or main loss, solvent and temperature range per sample as printed): TG-FTIR: loss of ~0.9 wt.-% | PXRD Result after storage ([2]; closed, 60° C., 1 w): amorphous | PXRD Result after storage ([2]; closed, 60° C., 2 w): amorphous | PXRD Result after storage ([2]; closed, 60° C., 4 w): amorphous | PXRD Result after storage ([2]; closed, 80° C., 1 w): amorphous | PXRD Result after storage ([2]; closed, 80° C., 2 w): amorphous | PXRD Result after storage ([2]; closed, 80° C., 4 w): amorphous | PXRD Result after storage ([2]; open, 25° C./~62% r.h., 1 w): amorphous | PXRD Result after storage ([2]; open, 25° C./~62% r.h., 2 w): amorphous | PXRD Result after storage ([2]; open, 25° C./~62% r.h., 4 w): amorphous | PXRD Result after storage ([2]; open, 40° C./~75% r.h., 1 w): amorphous | PXRD Result after storage ([2]; open, 40° C./~75% r.h., 2 w): amorphous | PXRD Result after storage ([2]; open, 40° C./~75% r.h., 4 w): amorphous | area-% of reference sample at end of HPLC sequence, 242 nm [3]: 99.5% | area-% of reference sample at end of HPLC sequence, 254 nm [3]: 99.3% | DVS: hygroscopicity class [4]: DVS: slightly hygroscopic; Δm = (mass increase <2% but ≧0.2%) | DVS: total mass gain from 0% r.h. to 95% r.h. ([4]; 0% r.h. to 95% r.h.): mass gain of 2.1 wt.-% from 0% | DVS: Δm (50%→85% r.h.) ([4]; 50%→85% r.h.): +0.4% (50%→85% r.h.); total | Δm (50%→85% r.h.) ([4]; DVS): +0.4% | post-DVS Raman and/or PXRD: solid form ([4]; after DVS): unchanged | Hygroscopicity classification (DVS) ([4]; mass gain at 85% r.h.): slightly hygroscopic (mass increase <2% but ≧0.2%) | Solubility S ([5]; DCM): S > 200 mg/mL | Solubility S ([5]; DEE, dissolved completely overnight): S > 1^d mg/mL | Solubility S ([5]; DMF): S > 210 mg/mL | Solubility S ([5]; EtOAc): S > 210 mg/mL | Solubility S ([5]; H2O): S < 1 mg/mL | Solubility S ([5]; MeCN): S > 230 mg/mL | Solubility S ([5]; MeCN/H2O (2:3)): S < 1 mg/mL | Solubility S ([5]; MeOH): S < 210 mg/mL | Solubility S ([5]; acetone): S > 230 mg/mL | Solubility S ([5]; heptane): S < 1 mg/mL | Solubility S ([5]; toluene): S > 200 mg/mL | Solubility S ([5]; toluene/DEE (1:1), precipitation after ~1d): S > 220 mg/mL
